The values below are quoted from earlier work in patent US6890568B2, “Method for management of blood glucose levels” (priority 1999, dated 2005).

In the data set the test system is insulin-deficient, streptozotocin-induced rat model of diabetes. The note with it: vanadate in the drinking water.

Take `[O]=[V]([O-])([O-])[O-]` [vanadate]: the control of diabetes entry is given as “shown to control diabetes” and the side effects entry is “life-threatening diarrhea”.
